According to BindingDB's records for doi:10.1021/jm00348a025 (1982):
pIC50: −log10 of the molar value.

How the values were obtained:
[1] = target: Alkaline phosphatase, tissue-nonspecific isozyme (Homo sapiens) (UniProt P05186); assay: Concentration required for 50% inhibition of human leukocyte alkaline phosphatase in the presence of 10 mM p-nitrophenyl phosphate as substrate
[2] = target: Alkaline phosphatase, tissue-nonspecific isozyme (Homo sapiens) (UniProt P05186); assay: as above; remark: listed apart in the source

Alkaline phosphatase, tissue-nonspecific isozyme (Homo sapiens), sequence (P05186 whole entry, looked up): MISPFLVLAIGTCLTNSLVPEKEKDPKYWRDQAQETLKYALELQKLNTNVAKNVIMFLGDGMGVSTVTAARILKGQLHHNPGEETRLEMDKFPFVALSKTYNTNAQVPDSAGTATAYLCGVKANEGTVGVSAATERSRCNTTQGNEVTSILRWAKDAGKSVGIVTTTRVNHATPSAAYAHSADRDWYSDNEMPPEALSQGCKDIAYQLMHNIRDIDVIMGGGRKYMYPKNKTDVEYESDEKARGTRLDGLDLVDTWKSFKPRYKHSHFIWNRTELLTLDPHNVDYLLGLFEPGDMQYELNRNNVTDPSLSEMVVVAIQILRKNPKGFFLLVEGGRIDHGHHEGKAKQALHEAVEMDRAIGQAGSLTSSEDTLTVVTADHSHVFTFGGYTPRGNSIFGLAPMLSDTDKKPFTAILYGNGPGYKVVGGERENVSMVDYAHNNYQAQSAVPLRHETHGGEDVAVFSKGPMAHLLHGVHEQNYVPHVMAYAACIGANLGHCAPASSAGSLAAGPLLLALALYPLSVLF

| Structure (SMILES) | pIC50 [1] | pIC50 [2] |
| --- | --- | --- |
| CCCCc1cc2c(O)cc(C(=O)O)nc2c2c(O)cc(C(=O)O)nc12 | 3.01 |  |
| O=C(O)c1ccc2nc3ccc(O)cc3c(=O)n2c1 |  | 3.47 |
| CCCOc1ccccc1-c1nc2nn[nH]c2c(=O)[nH]1 [5-(2-propoxyphenyl)-2H,3H,7H-[1,2,3]triazolo[4,5-d]pyrimidin-7-one] |  | 2.76 |
| O=C(O)c1cc(=O)c2c(OCC(O)COc3cccc4oc(C(=O)O)cc(=O)c34)cccc2o1 [Crolom] | 2.01 |  |
